This note sets out measurements from patent publication US20250195444A1, “POLYMER-COATED NANOPARTICLES AND PREPARATION METHOD THEREFOR” (SCINDY PHARMACEUTICAL (SUZHOU) CO., LTD, priority 2022, published 2025).

Bounds are passed on as bounds.

The test system of data set [1] is Carbapenem-susceptible Escherichia coli (12). Put plainly: In vitro antimicrobial susceptibility testing, broth microdilution MIC. The conditions noted are these: 12 strains. It is filed as cell-based. The text has this: (§1) A total of 44 strains of clinically isolated Gram-negative bacteria were collected for antimicrobial susceptibility testing, including 12 strains of Escherichia coli (carbapenem-susceptible), 12 strains of Klebsiella pneumoniae (carbapenem-susceptible), 10 strains of Acinetobacter baumannii (carbapenem-susceptible), and 10 strains of Pseudomonas aeruginosa (carbapenem-susceptible).
(§2) According to the recommendations of the 2021 edition of the Clinical and Laboratory Standards Institute (CLSI), a broth microdilution method was used to measure the minimum inhibitory concentration (MIC) of a test substance against clinical isolates. • (1) Preparation of antimicrobial drug: The test drug was dissolved and diluted, and the control drug was dissolved and diluted according to CLSI requirements. The test concentration range of the antibacterial drug solution was 0.015 mg/L to 32 mg/L. • (2) Culture medium: Cation adjusted muellerhinton broth (CAMHB), a product of BD Company, USA, batch number: 9324795. • (3) Inoculation amount: Fresh pure colonies on Columbia blood agar were picked using a direct colony suspension method. The colonies were adjusted to a McFarland turbidity of 0.5 and then appropriately diluted. The final concentration of the test bacteria was 10^5 CFU/mL. • (4) Culture conditions: The colonies were cultured in air at 35° C.±2° C. for 16 to 20 hours. • (5) Reading and judgment of results: For colistin, according to the European EUCAST breakpoint judgment standard, a result of <2 mg/L is susceptible, and a result of >4 mg/L is resistant. The lowest antimicrobial drug concentration that inhibits bacterial growth is read as an MIC value. • (6) Quality control strains: Escherichia coli ATCC 25922 and Pseudomonas aeruginosa ATCC 27853. • (7) Data statistics: WHONET version 5.6 software was used to perform statistical analysis on the results of the antimicrobial susceptibility testing.
On the technique in general: In broth dilution the organism is exposed to a series of concentrations in liquid medium.

Data set [2] has as its system Carbapenem-susceptible Klebsiella pneumoniae (12). The data set is described as above. The conditions noted are these: 12 strains. The class given is cell-based.
Source text: as §1, §2

Data set [3] deals with Carbapenem-susceptible Acinetobacter baumannii (10). Described as above. The class given is cell-based. The conditions noted are these: 10 strains.
Source text: as §1, §2

The subject of data set [4] is Carbapenem-susceptible Pseudomonas aeruginosa (10). Described as above. The class given is cell-based. To be noted: 10 strains.
Source text: as §1, §2

In data set [5] the test system is Carbapenem-susceptible Gram-negative bacteria (44). The data set is described as above. The class given is cell-based. The conditions noted are these: 44 strains.
Source text: as §1, §2

A short description of data set [6]: Safety test, maximum tolerated dose in ICR mice. It is filed as in vivo. To be noted: male ICR mice, intravenous injection, 1.5 mg/ml. From the text: The drug safety of colistin sulfate, the nanoparticles of Examples 1 and 2, and the nanoparticles of Comparative Examples 1 and 2 in mice was compared.
Test indicators: clinical observation, animal morbidity/death, and weight change. The maximum compound dosage that causes the weight loss of mice to not exceed 20% and no animal death is the maximum tolerated dose.

A short description of data set [7]: Safety test, maximum tolerated dose in Balb/c nude mice. To be noted: male Balb/c nude mice, intravenous injection, 1.0 mg/ml.
Method: Male Balb/c nude mice (purchased from Shanghai Lingchang Experimental Animal Co., Ltd.), 6 to 7 weeks old and weighing 17 g to 21 g, were given platinum cyclohexanediamine dihydrate or a platinum cyclohexanediamine dihydrate polymer-coated nanoparticle solution by intravenous injection at an administration concentration of 1.0 mg/ml. The dose volume was adjusted according to the weight of the animal. The highest dose that enables all subjects in the test to survive continuously is defined as MTD.
Animal grouping: Before starting the administration, the animals were weighed and randomly grouped according to the weight.
Test indicators: After administration, the mice were observed continuously for at least 14 days, and the observation interval and frequency were properly arranged so as to observe the occurrence of toxic reactions, recovery time, animal death time, etc. If the toxic reactions of the mice occur slowly or the mice recover slowly, the observation time should be appropriately extended.
In another data set the test system is HT29 cells. The data set is described as follows: Proliferation of HT29 cells in vitro (CCK8). It is filed as cell-based. To be noted: 72 hours of drug treatment, read-out: HT-29ReIC50. The protocol:
Cell culture: HT29 (Cat. No.: CBP30001L, purchased from Cobioer) was revived and cultured with 1640+10% FBS.
Plating: Normally growing cells were digested with a trypsin cell digestion solution, then centrifuged, counted, and plated into a 96-well plate at a cell density of 3000 cells/well, 100 μL per well, for a total of 60 wells, and sealed with an appropriate amount of PBS around to prevent water evaporation in the edge wells.
Administration: The administration was performed on the second day after cell plating, 100 μL of a drug solution was added to each well, and two replicate wells were set up for each concentration point.
Detection: After 72 hours of drug treatment, all the liquid in the 96-well plate was poured out, and 100 μL of a CCK8 (diluted to 1:9 with culture medium) solution was added to each well. After incubation at 37° C. for a period of time (OD450 of Vehicle group reached above 1.0), the absorption at 450 nm was detected using an ELISA reader.
Data processing: Inhibition Rate (%)=(1−OD450Sample/OD450Vehicle)×100, where
OD450Sample is the 450 nm absorption value of the drug-treated group, and OD450Vehicle is the 450 nm absorption value of the DMSO control group. GraphPad Prism 8.0 software was used to draw an S-shaped dose-survival rate curve with a nonlinear regression model, and the IC50 value was calculated.

Broadly, the MIC50 is an inhibitory concentration at the 50% level, which refers to growth in some studies and to a panel of isolates in others. The MIC90 is an inhibitory concentration at the 90% level, which refers to growth in some studies and to a panel of isolates in others. A lower MIC90 goes with greater potency.

For colistin sulfate, the MIC50 is 0.125 µg/mL in data set [1]; 0.5 µg/mL in data set [2]; 0.5 µg/mL in data set [3]; 1 µg/mL in data set [4]; 0.5 µg/mL in data set [5]. Besides, the MIC90 in data set [1] stood at 0.25 µg/mL; in data set [2] it was 0.5 µg/mL; in data set [3], 0.5 µg/mL; in data set [4] it was 2 µg/mL; in data set [5] it was 2 µg/mL. In addition, the “Mode (MIC)” value in data set [1] stood at 0.125 µg/mL; in data set [2] it was 0.5 µg/mL; in data set [3], 0.5 µg/mL; in data set [4] it was 2 µg/mL; in data set [5], 0.5 µg/mL. Besides, the “Resistance rate (%)” value in data set [1] (EUCAST breakpoint), in data set [2] (EUCAST breakpoint), in data set [3] (EUCAST breakpoint), in data set [4] (EUCAST breakpoint) and in data set [5] (EUCAST breakpoint) was 0% in each case. In addition, the “Susceptibility rate (%)” value in data set [1] (EUCAST breakpoint), in data set [2] (EUCAST breakpoint), in data set [3] (EUCAST breakpoint), in data set [4] (EUCAST breakpoint) and in data set [5] (EUCAST breakpoint) was 100% in each case. This substance also yielded an MTD in data set [6] of 8 mg/kg.

In data set [7], “platinum cyclohexanediamine dihydrate [Cyclohexanediamine platinum dihydrate]” displayed an MTD of under 4 mpk. Further, the IC50 in the data set on HT29 cells turned out to be 1610 ± 230 nM.
